The record followed here is paper doi:10.1101/2025.08.05.668571v1, “Preliminary Study on the Mechanisms of Cytokinin and Its Receptor Binding Diversity” (biorxiv, 2025).

As usually defined, the Kd is the constant that tells how readily two partners part at equilibrium. Read a low Kd as a tighter complex.

For the test, the target named is T1, AHK4^CD (6×His-AHK4^CD-GFP) (Arabidopsis thaliana, UniProt Q9C5U0).
T1 construct: extracellular CHASE domain, residues 126-395; N-terminal 6×His via linker, C-terminal GFP, tags kept; pRSF-Duet, E. coli Rosetta (BL21), Ni-NTA
T1 sequence (Q9C5U0 149-418): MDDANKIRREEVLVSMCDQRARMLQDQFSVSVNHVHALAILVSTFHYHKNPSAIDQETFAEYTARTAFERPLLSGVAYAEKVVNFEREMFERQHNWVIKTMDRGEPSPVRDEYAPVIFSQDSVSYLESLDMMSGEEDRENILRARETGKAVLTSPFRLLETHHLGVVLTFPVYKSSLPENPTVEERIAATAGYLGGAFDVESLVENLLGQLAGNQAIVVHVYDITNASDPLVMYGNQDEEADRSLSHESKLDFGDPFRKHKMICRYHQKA
Briefly: microscale thermophoresis (MST), GFP-tagged target. The class given is binding.

As to `c1ccc(CNc2ncnc3nc[nH]c23)cc1` [6-BA], the Kd was determined as 27.7 ± 20.7 nM. Regarding `CC(C)=CCNc1ncnc2nc[nH]c12` [2iP], the affinity, expressed as Kd, was 540 ± 262 nM.
